Values quoted from earlier work as cited in patent US6440395B1, “Antiplaque mouth rinse” (priority 1992, dated 2002).

| Structure (SMILES) | solubility in water and alcohol (water and alcohol, stated in words) | solubility in water (in water at 25° C.) |
| --- | --- | --- |
| CCCCCCCCCCCCCCCC[n+]1ccccc1 [CPC, cetyl pyridinium chloride] | highly soluble |  |
| Oc1cc(Cl)ccc1Oc1ccc(Cl)cc1Cl [Triclosan, 2,4,4′-trichloro-2′-hydroxydiphenyl ether] |  | less than 1 % by weight |
